Test results from ChEMBL document CHEMBL1201862, “PubChem BioAssay data set” (2004).
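96-well plates; 48 h exposure; 5 concentrations. Endpoints by linear interpolation between flanking doses. Not reached: highest tested concentration assigned. GI50: concentration for 50% inhibition of growth.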 Activity calls are given as the source filed them. Cut-off read from the data, not from the text of the source: active = GI50 up to about 1.1 µM and inactive = higher. Residues, ends and D or L forms follow the SMILES beside them. *: point of attachment. Boc = CC(C)(C)OC(=O)*; OBn = c1ccc(CO*)cc1

Columns and labels:
Test in all cases: NCI-60 cell line screen, 48 h
MDA-MB-231 = tested on: MDA-MB-231
SNB-75 = tested on: SNB-75
MCF7 = tested on: MCF7
SW-620 = tested on: SW-620
NCI-H23 = tested on: NCI-H23
MDA-N = tested on: MDA-N
OVCAR-8 = tested on: OVCAR-8
PC-3 = tested on: PC-3
786-0 = tested on: 786-0
K562 = tested on: K562
COLO 205 = tested on: COLO 205
IGROV-1 = tested on: IGROV-1
SF-539 = tested on: SF-539
M14 = tested on: M14
RPMI-8226 = tested on: RPMI-8226
A549 = tested on: A549
HCT-116 = tested on: HCT-116
HOP-62 = tested on: HOP-62
OVCAR-3 = tested on: OVCAR-3
SK-OV-3 = tested on: SK-OV-3

Structure (SMILES)	GI50 (MDA-MB-231)	GI50 (SNB-75)	GI50 (MCF7)	GI50 (SW-620)	GI50 (NCI-H23)	GI50 (MDA-N)	GI50 (OVCAR-8)	GI50 (PC-3)	GI50 (786-0)	GI50 (K562)	GI50 (COLO 205)	GI50 (IGROV-1)	GI50 (SF-539)	GI50 (M14)	GI50 (RPMI-8226)	GI50 (A549)	GI50 (HCT-116)	GI50 (HOP-62)	GI50 (OVCAR-3)	GI50 (SK-OV-3)
CCN1C[C@]2(C)CC[C@H](OCc3ccccc3)C34C5C[C@@H]6CC[C@](O)(C(C[C@@H]32)C14)C5[C@H]6OCc1ccccc1 (stereo not given in full)	52.1 µM (inactive)	49 µM (inactive)	7.01 µM (inactive)	> 100 µM (inactive)	> 100 µM (inactive)	75.5 µM (inactive)	93.8 µM (inactive)	21.7 µM (inactive)	> 100 µM (inactive)	55.6 µM (inactive)	42 µM (inactive)	92.3 µM (inactive)	> 100 µM (inactive)	46.9 µM (inactive)	31 µM (inactive)	> 100 µM (inactive)	42.7 µM (inactive)	> 100 µM (inactive)	35.6 µM (inactive)	> 100 µM (inactive)
COc1ccc(CNC(C)C(=O)O)cc1 (stereo not given)	> 100 µM (inactive)	> 100 µM (inactive)	> 100 µM (inactive)	> 100 µM (inactive)	> 100 µM (inactive)	> 100 µM (inactive)	> 100 µM (inactive)	> 100 µM (inactive)	> 100 µM (inactive)	> 100 µM (inactive)	> 100 µM (inactive)	> 100 µM (inactive)	> 100 µM (inactive)	> 100 µM (inactive)	> 100 µM (inactive)	> 100 µM (inactive)	> 100 µM (inactive)	> 100 µM (inactive)	> 100 µM (inactive)	> 100 µM (inactive)
CC(=O)Nc1cccc(N2C(=O)/C(=C\c3cccc(Oc4ccccc4)c3)S(=O)(=O)C2c2ccccc2)c1 (stereo not given)	> 100 µM (inactive)	> 100 µM (inactive)	34 µM (inactive)	37.8 µM (inactive)	97.7 µM (inactive)	33.1 µM (inactive)	37.1 µM (inactive)	64.3 µM (inactive)	> 100 µM (inactive)	26.7 µM (inactive)	59.7 µM (inactive)	50.7 µM (inactive)	36 µM (inactive)	90.6 µM (inactive)	61.5 µM (inactive)	> 100 µM (inactive)	34.1 µM (inactive)	> 100 µM (inactive)	45.4 µM (inactive)	> 100 µM (inactive)
CC(C)CC(NC(=O)OC(C)(C)C)C(=O)NC(CC(=O)OCc1ccccc1)C(=O)OCc1ccccc1 (stereo not drawn) (Boc-Leu-Asp(OBn)-OBn; configuration not given here)	39.4 µM (inactive)	87.9 µM (inactive)	31.5 µM (inactive)	34.2 µM (inactive)	32.4 µM (inactive)	42.2 µM (inactive)	> 100 µM (inactive)	29.4 µM (inactive)	19 µM (inactive)	33.5 µM (inactive)	43.2 µM (inactive)	> 10 µM (inactive)	31 µM (inactive)	19.2 µM (inactive)	27.8 µM (inactive)	> 100 µM (inactive)	30.7 µM (inactive)	> 100 µM (inactive)	22.4 µM (inactive)	> 100 µM (inactive)
Cc1ccc(S(=O)(=O)c2c(O)c3ccccc3n(C)c2=O)cc1	> 100 µM (inactive)	> 100 µM (inactive)	> 100 µM (inactive)	> 100 µM (inactive)	> 100 µM (inactive)	> 100 µM (inactive)	> 100 µM (inactive)	> 100 µM (inactive)	> 100 µM (inactive)	> 100 µM (inactive)	> 100 µM (inactive)	> 100 µM (inactive)	> 100 µM (inactive)	> 100 µM (inactive)	> 100 µM (inactive)	> 100 µM (inactive)	> 100 µM (inactive)	> 100 µM (inactive)	> 100 µM (inactive)	> 100 µM (inactive)
CC[P+](C#Cc1ccccc1)(c1ccccc1)c1ccccc1	3.18 µM (inactive)	1.78 µM (inactive)	3.09 µM (inactive)	1.17 µM (inactive)	2.17 µM (inactive)	1.56 µM (inactive)	1.76 µM (inactive)	2.3 µM (inactive)	1.57 µM (inactive)	0.224 µM (active)	1.06 µM (active)	3.1 µM (inactive)	1.79 µM (inactive)	1.66 µM (inactive)	0.242 µM (active)	3.08 µM (inactive)	1.77 µM (inactive)	2.44 µM (inactive)	1.31 µM (inactive)	2.93 µM (inactive)
O=C(O)CCc1ccc(-c2ccccc2)[nH]1	> 100 µM (inactive)	> 100 µM (inactive)	> 100 µM (inactive)	> 100 µM (inactive)	> 100 µM (inactive)	> 100 µM (inactive)	> 100 µM (inactive)	> 100 µM (inactive)	> 100 µM (inactive)	> 100 µM (inactive)	> 100 µM (inactive)	> 100 µM (inactive)	> 100 µM (inactive)	> 100 µM (inactive)	> 100 µM (inactive)	> 100 µM (inactive)	> 100 µM (inactive)	> 100 µM (inactive)	> 100 µM (inactive)	> 100 µM (inactive)
N=C(N)NS(=O)(=O)c1ccc(NC(=O)c2ccc3nc4ccccc4c(N)c3c2)cc1	> 100 µM (inactive)	> 100 µM (inactive)	> 100 µM (inactive)	> 100 µM (inactive)	> 100 µM (inactive)	> 100 µM (inactive)	> 100 µM (inactive)	> 100 µM (inactive)	> 100 µM (inactive)	> 100 µM (inactive)	> 100 µM (inactive)	> 100 µM (inactive)	> 100 µM (inactive)	> 100 µM (inactive)	> 100 µM (inactive)	> 100 µM (inactive)	> 100 µM (inactive)	> 100 µM (inactive)	> 100 µM (inactive)	> 100 µM (inactive)
CCc1c[n+]2c(cc1C1=CN3c4ccccc4[C@]45CCN6C/C(=C/CO)[C@H](C[C@H]64)[C@@H]([C@@H]1O)[C@H]35)-c1[nH]c3ccccc3c1CC2	> 50 µM (inactive)	> 50 µM (inactive)	> 50 µM (inactive)	> 50 µM (inactive)	> 50 µM (inactive)	> 50 µM (inactive)	> 50 µM (inactive)	> 50 µM (inactive)	> 50 µM (inactive)	> 50 µM (inactive)	> 50 µM (inactive)	> 50 µM (inactive)	> 50 µM (inactive)	> 50 µM (inactive)	> 50 µM (inactive)	> 50 µM (inactive)	> 50 µM (inactive)	> 50 µM (inactive)	> 50 µM (inactive)	> 50 µM (inactive)
C=CCC1C(=O)Nc2cccc3ncn(c23)C1=O (stereo not given)	> 100 µM (inactive)	> 100 µM (inactive)	> 100 µM (inactive)	> 100 µM (inactive)	> 100 µM (inactive)	> 100 µM (inactive)	> 100 µM (inactive)	> 100 µM (inactive)	> 100 µM (inactive)	> 100 µM (inactive)	> 100 µM (inactive)	> 100 µM (inactive)	> 100 µM (inactive)	> 100 µM (inactive)	> 100 µM (inactive)	> 100 µM (inactive)	> 100 µM (inactive)	> 100 µM (inactive)	> 100 µM (inactive)	> 100 µM (inactive)
CC(=O)NC1C(OCc2ccccc2)OC(CO)C(O)C1OCC(=O)N[C@@H](C)C(=O)N[C@H](CCC(=O)NCCCCNc1c2ccccc2nc2cccc([N+](=O)[O-])c12)C(N)=O (stereo not given in full)	2.5 µM (inactive)	1.79 µM (inactive)	0.771 µM (active)	0.618 µM (active)	0.984 µM (active)	1.64 µM (inactive)	1.55 µM (inactive)	1.24 µM (inactive)	0.998 µM (active)	1.13 µM (inactive)	0.684 µM (active)	0.804 µM (active)	0.731 µM (active)	2.23 µM (inactive)	1.64 µM (inactive)	0.959 µM (active)	0.637 µM (active)	3.69 µM (inactive)	3.5 µM (inactive)	7.59 µM (inactive)
O=C(O)C1CCCCC1C(=O)Nn1cnnc1 (stereo not given)	> 100 µM (inactive)	> 100 µM (inactive)	> 100 µM (inactive)	> 100 µM (inactive)	> 100 µM (inactive)	> 100 µM (inactive)	> 100 µM (inactive)	> 100 µM (inactive)	> 100 µM (inactive)	> 100 µM (inactive)	> 100 µM (inactive)	> 100 µM (inactive)	> 100 µM (inactive)	> 100 µM (inactive)	> 100 µM (inactive)	> 100 µM (inactive)	> 100 µM (inactive)	> 100 µM (inactive)	> 100 µM (inactive)	> 100 µM (inactive)
COC(=O)C#CC1(O)C=CC(=O)C=C1	2 µM (inactive)	3.9 µM (inactive)	0.352 µM (active)	0.299 µM (active)	1.57 µM (inactive)	1.18 µM (inactive)	0.203 µM (active)	1.29 µM (inactive)	0.483 µM (active)	0.392 µM (active)	2.41 µM (inactive)	0.508 µM (active)	1.12 µM (active)	1.25 µM (inactive)	0.687 µM (active)	9.46 µM (inactive)	0.256 µM (active)	4.72 µM (inactive)	0.367 µM (active)	28 µM (inactive)
